The record followed here is patent US20200101103A1, “REINFORCEMENT OF MUCUS BARRIER PROPERTIES” (CIRQLE BIOMEDICAL CONTRACEPTION IVS, priority 2017, published 2020).

In this experiment the test system is purified porcine gastric mucin. Put plainly: Effect of muco-adhesive amino acid polymers on mucin gels (light microscopy). Conditions: 5 mg/mL polymer, 4 μl mucin drop, 3 min to 50 min of contact. The procedure:
FIG. 7 illustrates the effect of low or high molecular weight muco-adhesive polymers on mucin gels. A 4 μl drop of purified porcine gastric mucin was placed in a solution of poly-L-arginine (PLA, DP 11 corresponding to 1.9 kDa, 5 mg/mL), poly-L-lysine (PLL, DP 11 corresponding to 1.6 kDa, 5 mg/mL), or poly-L-lysine (PLL, DP 400 corresponding to 66 kDa, 5 mg/mL). The drop of mucin was observed under the microscope (10x objective). The three images are taken after 3 min, 12 min 30, and 50 min of contact.
Effect of low or high molecular weight muco-adhesive polymers on mucin gels. A 4 μl drop of purified porcine gastric mucin was placed in a solution of poly-L-arginine (PLA, 1.9 kDa, 5 mg/mL), poly-L-lysine (PLL, 1.6 kDa, 5 mg/mL), or poly-L-lysine (PLL, 66 kDa, 5 mg/mL). The drop of mucin was observed under the microscope (10× objective). The three images are taken after 3 min, 12 min 30, and 50 min of contact.
As for poly-L-lysine [PLL, 1.6 kDa], the “effect on mucin gel drop” value was “clearly crosslinks the mucin in depth”. As for poly-L-arginine [PLA, 1.9 kDa], the “effect on mucin gel drop” value was “clearly crosslinks the mucin in depth”.

For the substance “poly-L-lysine [PLL, 66 kDa, reference compound]”, the “effect on mucin gel drop” value was “changes the structure of the mucins drop and compacts it significantly”.
